Each structure is given as a SMILES string.

This is an account of results in paper PMC10609081, “In Vivo Trafficking of the Anticancer Drug Tris(8-Quinolinolato) Gallium (III) (KP46) by Gallium-68/67 PET/SPECT Imaging” (Molecules, 2023).

Data set [1] can be described thus: PET imaging and ex vivo biodistribution 4 h after intravenous injection, NSG mice bearing A375 xenografts (groups A, B). The class given is in vivo. The following applies: i.v., tracer level. On the procedure:
(§1) All animal experiments were performed in accordance with the Animals (Scientific Procedures) Act, 1986, with protocols approved by the Animal Welfare and Ethical Review Body for King’s College London under project and personal licences approved by the UK Home Office. Tumour xenograft studies were performed on female NSG mice or female athymic nude mice after injecting them subcutaneously in the right shoulder with 2.5 × 10^6 A375 cells in 100 µL of PBS. All in vivo studies were conducted between 14 and 24 days after inoculation, with tumour volumes between 100 mm^3 and 580 mm^3 (see Supplementary Materials, Figure S11).
Intravenous [^68Ga]gallium acetate and [^68Ga]KP46: NSG mice bearing A375 xenografts were fasted for 12–14 h before the start of the experiment. Mice were anaesthetised with isoflurane and injected with tracer level [^68Ga]gallium acetate (group A, n = 5) or [^68Ga]KP46 (group B, n = 5) (13–18 MBq, <200 μL) via the tail vein. […] The organs were harvested, weighed, and gamma counted. […]
PET/CT images were acquired with a nanoScan® PET/CT (Mediso Medical Imaging Systems, Budapest, Hungary) scanner operating in list mode using a 400–600 keV energy window and a coincidence window of 1:3. […] The data were then visualised and quantified using VivoQuant^© v.2.50 (InviCro, Boston, MA, USA) software. […] Images were coregistered and analysed using VivoQuant v2.50 (InviCro, Needham, MA, USA).

Data set [2] is described as follows: Distribution/partition coefficients (logD, logP), shake flask with gamma counting. The class given is physicochemical. The following applies: tracer level, mean ± SD. The procedure:
Tracer-level [^68Ga]KP46 and [^68Ga]Ga-acetate solutions (5–20 µL, 0.3–0.5 MBq) were added to a pre-equilibrated mixture (500 µL/500 µL) of octanol/water (for logP measurement) or octanol/PBS (for logD7.4 measurement). Samples were vortexed for two minutes in a Multi Vortex Mixer V-32 (Grant Bio). From each layer, a sample of 200 µL was taken and its radioactivity measured using a gamma counter.

A short description of data set [3]: Octanol extraction of serum, urine and gut contents after oral radiolabelled KP46 (speciation). The following applies: 4 h. The class given is in vivo, mice. On the procedure: Serum and urine from the “tracer level” group (E) were subjected to octanol extraction 24 h postadministration to determine the fraction of ^67Ga that may have survived in the form of [^67Ga]KP46 after absorption from the gut.
(§2) Oral [^68/67Ga]KP46: The protocol for oral administration experiments reported here was devised on the basis of pilot experiments described in Supplementary Materials (Figure S12). For short-term (up to 4 h) studies with ^68Ga, awake (nonanaesthetised, to avoid suppressive effects of anaesthesia on digestive tract activity) mice that had been fasted for up to 14 h were given [^68Ga]KP46 (5–13 MBq) (group C, “tracer”, n = 3) or [^68Ga]KP46 and KP46 (5–8.5 MBq) (group D, “bulk”, n = 3) by oral gavage. The dose given orally to group D animals, prepared as described above, was 0.4 μmol in 400 μL, molar activity ca. 25 MBq/μmol. The mice were fasted for three hours before being anaesthetised and PET/CT scanned dynamically for one hour (see below for scanning protocol). After scanning, mice in both groups were culled by neck dislocation while still anaesthetised four hours post-oral administration for organ harvesting and gamma counting. Samples of blood, urine and contents of stomach, small intestine and large intestine (the organs/tissue with measurable activity; tumours were not included as they were insufficiently radioactive) from the mice in group C were used for octanol extraction (shake-flask method) to separate water-soluble (released) and lipid-soluble (intact KP46) ^68Ga. Serum samples were prepared by placing blood samples in a serum separator tube (brand VS367954, Fisher Scientific Ltd., Loughborough, UK) and centrifuging at 3000 rpm for 10 min. Serum (200–300 µL) and urine samples (150–180 µL, taken from the excised bladders) were directly added to Eppendorf tubes containing a pre-equilibrated mixture of octanol (500 µL) and water (500 µL). The tubes were vortexed for two minutes on a Multi Vortex Mixer V-32 (Grant Bio). After separation of layers, a sample of 400 µL from each layer was transferred to fresh Eppendorf tubes and analysed with a gamma counter. Stomach content (72–77 mg), small intestine content (35–88 mg), and large intestine content (86–100 mg) samples from each mouse were analysed similarly by adding them directly to Eppendorf tubes containing a pre-equilibrated mixture of octanol (500 µL) and water (500 µL) before vortexing and centrifuging at 10,000 rpm for 10 min at 4 °C. From each layer, 430 µL was transferred to fresh Eppendorf tubes and analysed with a gamma counter; the solid residues were also counted. Tissues from mice in group D were used after radioactive decay for measurements of nonradioactive ^69Ga content.

Data set [4] is described as follows: PET imaging and ex vivo biodistribution 4 h after oral administration of [68Ga]KP46, tracer (group C) and bulk (group D). The data set is classed as in vivo, mice. The following applies: n = 3. The procedure:
The tracer-level samples for oral administration were prepared in the same manner but with 20 μL of KP46-free DMSO in place of the KP46 solution in DMSO.
as §1, §2
PET/CT images were acquired with a nanoScan® PET/CT (Mediso Medical Imaging Systems, Budapest, Hungary) scanner operating in list mode using a 400–600 keV energy window and a coincidence window of 1:3. CT scans were acquired for anatomical reference and attenuation correction (55 keV X-ray, exposure time 1000 ms, and 360 projections and pitch 1). PET projection data were reconstructed using the Tera-tomo® software package provided with the scanner —a Monte Carlo-based fully 3D iterative algorithm with four iterations, six subsets, and 0.4 mm isotropic voxel size; corrections for attenuation, scatter, and dead-time were enabled. […]

Where [5] appears, read: after removal of solids, octanol extraction, group C.
[6] abbreviates: not extracted into octanol or water, oral tracer (group C).
Where [7] appears, read: octanol extraction, oral tracer (group C).

In the case of `[68Ga+3].[O-]c1cccc2cccnc12.[O-]c1cccc2cccnc12.[O-]c1cccc2cccnc12` [[^68Ga]KP46], in data set [1] (4 h, n = 5), the “tumour uptake, ex vivo biodistribution” value is on record as 2.6 ± 0.9 %ID/g. Further, in data set [1] (by four hours), the “tumour uptake of 68Ga by PET/CT” value was “no visible tumour accumulation”. In addition, in data set [2] (octanol/PBS), the “logD(octanol/PBS)” value was 1.90 ± 0.19. Also, in data set [2] (octanol/water), the “logP(octanol/water)” value is 2.33 ± 0.28. In data set [3] (setting [5]), the “soluble radioactivity in aqueous phase, large intestine” value is 95.5% ± 4.2%; the “soluble radioactivity in aqueous phase, small intestine” value is on record as 95% ± 2.5%; the “soluble radioactivity in aqueous phase, stomach” value is on record as 76.8% ± 8.7%. In data set [3] (setting [6]), the “activity present in solids, large intestine contents” value is reported as 83.7% ± 8.8%; the “activity present in solids, small intestine contents” value was 80.7% ± 19.4%; the “activity present in solids, stomach contents” value is given as 82.9% ± 10.7%. Besides, in data set [3] (setting [7]), the “68Ga in aqueous phase, serum” value is on record as 98.6% ± 1.5% and the “68Ga in aqueous phase, urine” value is given as 98.2% ± 1.7%. In data set [4] (bulk (group D)), the “68Ga activity delivered to tumour” value worked out at 0.5 ± 0.3 %ID/g, the “68Ga activity in small intestine” value is on record as 18.4 ± 5 %ID/g and the “68Ga activity in stomach” value is 11.9 ± 8.1 %ID/g. Further, the “68Ga activity in large intestine” value in data set [4] (bulk (group D, combined with KP46 0.4 μmol)) is 56.5 ± 21.4 %ID/g. Besides, in data set [4] (tracer level (group C)), the “uptake in large intestine, ex vivo” value was 61.7 ± 21.5 %ID/g and the “uptake in small intestine, ex vivo” value is 12.8 ± 4.1 %ID/g.
